Patent US6673802B2, “Compounds specific to adenosine A3 receptor and uses thereof” (OSI Pharmaceuticals, Inc., priority 2000, dated 2004)

Key:
A1 adenosine receptor = A1 adenosine receptor (Homo sapiens, UniProt P30542); conditions: cited from earlier work
[1] = target: T1, human A2a receptor subtype (Homo sapiens, UniProt P29274); test: Adenosine 2a receptor subtype competition radioligand binding ([3H]CGS-21680, HEK293 membranes); conditions: Table 13; probably % activity @ 10 μM (footnote 8)
T1 construct: purchased Receptor Biology (Beltsville, Md.) RB-HA2a
T1 sequence (P29274 whole entry): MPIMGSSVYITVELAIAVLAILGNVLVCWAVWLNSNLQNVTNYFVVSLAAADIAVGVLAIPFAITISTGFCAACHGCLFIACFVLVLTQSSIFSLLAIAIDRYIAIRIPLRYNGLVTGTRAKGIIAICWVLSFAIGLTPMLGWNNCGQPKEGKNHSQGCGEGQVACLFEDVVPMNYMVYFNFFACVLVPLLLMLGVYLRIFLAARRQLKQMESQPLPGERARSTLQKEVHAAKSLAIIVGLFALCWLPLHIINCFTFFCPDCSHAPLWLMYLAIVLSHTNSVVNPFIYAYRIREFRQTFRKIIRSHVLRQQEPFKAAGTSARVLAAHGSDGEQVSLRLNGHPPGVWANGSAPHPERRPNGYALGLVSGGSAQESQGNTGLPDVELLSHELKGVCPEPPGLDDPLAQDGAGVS

Chain of A1 adenosine receptor (P30542 whole entry): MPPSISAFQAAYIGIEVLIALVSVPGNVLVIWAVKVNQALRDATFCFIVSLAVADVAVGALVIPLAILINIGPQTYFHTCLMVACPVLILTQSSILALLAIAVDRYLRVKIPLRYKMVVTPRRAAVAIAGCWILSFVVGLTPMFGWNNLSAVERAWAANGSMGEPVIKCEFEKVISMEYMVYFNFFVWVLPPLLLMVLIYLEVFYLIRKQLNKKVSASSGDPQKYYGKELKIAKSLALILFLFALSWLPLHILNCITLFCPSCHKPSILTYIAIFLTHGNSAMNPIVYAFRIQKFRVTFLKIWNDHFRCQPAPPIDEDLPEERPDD

SMILES | melting point [°C] | further results
CC(Cc1ccccc1)Nc1ncnc2c1ncn2[C@@H]1O[C@H](CO)[C@@H](O)[C@H]1O (single isomer, unassigned; (-)) [PIA, (−)-N6-(2-phenylisopropyl)-adenosine] | – | reported affinity (A1 adenosine receptor): approximately 50 nM
CNC(=O)NCCCNc1nc(-c2ccccc2)nc2[nH]c(C)c(C)c12 [Compound 1310] | – | A2a, value printed as % [1]: 76%
c1ccc(-c2nc(NCCc3cnc[nH]3)c3cc[nH]c3n2)cc1 [Compound 1720, [2-(3H-Imidazol-4-yl)-ethyl]-(2-phenyl-7H-pyrrolo[2,3-d]pyrimidin-4-yl)-amine] | 234 to 235 | –
CC(=O)NCCNc1nc(-c2ccccc2)nc2[nH]c(COc3ccccc3)cc12 [Example 17, 4-(2-acetylaminoethyl)amino-6-phenoxymethyl-2-phenyl-7H-pyrrolo[2,3d]pyrimidine] | 196 to 197 | –
